{"source": "patent US20160002297A1", "about": "“THERAPEUTIC AGENTS” (NATIONAL UNIVERSITY OF SINGAPORE, priority 2013, published 2016)", "key": {"[1]": {"tested_on": "4T1 breast carcinoma", "assay": "Subcutaneous 4T1 breast carcinoma growth in mice, intravenous treatment", "assay_type": "in vivo, mouse", "protocol": "FIG. 13 cRKD peptide inhibits subcutaneous 4T1 breast carcinoma growth in mice when delivered intravenously. (a) 4T1 tumor growth curve in mice. X-axis represents the days after inoculation of 1 million tumor cells. Groups consisted of mice receiving 250 μg cRAA peptide or cRKD peptide through tail vein injection every other day from day 0 (date of inoculation) to 22. N=10. (b) Tumor weight at the end of the experiment (day 22). (c) Dissected tumors at the end of experiment. […] Paraffin sections of 4T1 tumors were probed for microvascular density (MVD), tumor cell proliferation and apoptosis through IF using anti-CD31, anti-PCNA and TUNEL staining respectively. (f) Quantification of MVD, cell proliferation and apoptosis. Plots represent the mean of 3 fields per section, 3 sections per tumor and 2 tumors per group. **P<0.01. Error bars denote SEM. […] Double immunofluorescence staining using anti-CD31 (red) and TUNEL (green) is shown. Nuclei were counter stained by DAPI (blue). Representative photos are shown. Apoptotic EC is indicated by white arrow."}, "[2]": {"tested_on": "B16 melanoma", "assay": "Pre-established subcutaneous B16 melanoma growth in mice, intravenous treatment", "assay_type": "in vivo, mouse", "protocol": "X-axis represents the days after inoculation of 5×10^5 tumor cells. Groups consisted of mice receiving cRAA and cRKD given in six doses of 250 μg through tail vein injection on days 8, 9, 10, 11, 12 and 13 (5 mice in each group, each mice with one tumor). (b) Tumor weight at the end of the experiment (day 14). (c) Dissected tumors at the end of experiment. […] Paraffin sections of B16 tumors were probed for microvascular density (MVD), tumor cell proliferation and apoptosis through immunofluoresence staining using anti-CD31, anti-PCNA and TUNEL staining respectively. (f) Quantification of MVD, cell proliferation and apoptosis. Plots represent the mean of 3 fields per section, 3 sections per tumor and 2 tumors per group. **P<0.01. Error bars denote SEM."}, "[3]": {"tested_on": "ECs", "assay": "Cell attachment (EC adhesion) assay", "assay_type": "cell-based", "details": "peptide coated on plastic surface", "protocol": "96-well plates were coated with 50 μl of 1 μM ISM at 4° C. overnight. Nonspecific binding sites were blocked with 1% BSA for 2 h at 37° C. ECs were harvested and incubated in CSC basal medium containing 4 μg/ml neutralizing antibodies or control IgG for 30 min. 2[…]104 cells were plated to each well and allowed to attach for 60 min at 37° C. Attached cells were fixed by 10% formalin and stained with 0.2% crystal violet. Absorbed crystal violet was extracted by 10% acetic acid and quantified by measuring the absorbance of eluted dye at 595 nm with a microplate reader."}, "[4]": {"molecular_target": "GRP78 (Homo sapiens, UniProt P11021)", "assay": "ELISA solid phase-binding assay for binding affinity to GRP78", "details": "purified recombinant GRP78", "protocol": "ELISA solid phase-binding assay was used to determine the dissociation constant between ISM or cyclic peptide and GRP78 as previously described with minor modification (Nishiuchi, Takagi et al. 2006). 96-well plates were coated with 50 μl of 10 nM cyclic peptide at 4° C. overnight. Nonspecific binding sites were blocked with 1% BSA for 2 h at room temperature. Increasing concentrations of GRP78 were incubated with immobilized cyclic peptide. After washing, the amount of bound GRP78 was quantified by ELISA. The value for Kd was calculated by GraphPad Prism software."}, "[5]": {"tested_on": "endothelial cells (ECs)", "assay": "Apoptosis assay (Cell Death ELISA) in cultured ECs", "assay_type": "cell-based", "details": "cultured ECs in the presence of VEGF, 24 h", "protocol": "ECs (2×10^4 cells per well) in 96-well plate were starved in 2% FBS basal CSC medium for 3 h. Cells were then incubated with peptides of various concentrations and 15 ng/ml VEGF for 24 h. Apoptosis was detected by measuring cytosolic oligonucleosome-bound DNA using a Cell Death ELISA kit purchased from Roche (USA). Plots represented the mean of 3 wells of apoptotic cells in 96 well plate (±SEM)."}, "[6]": {"details": "anti-CD31, anti-PCNA and TUNEL staining"}}, "note": "Positions of bridges follow the written chain, without caps; N, C: chain ends. Residues, ends and D or L forms follow the SMILES beside them."}
{"smiles": "N=C(N)NCCC[C@@H]1NC(=O)[C@@H](N)CSSC[C@@H](C(=O)O)NC(=O)[C@H](CC(=O)O)NC(=O)[C@H](CCCCN)NC1=O", "note": "[cRKD, Cyclic CRKDC peptide] (H-CRKDC-OH; disulfide 1-5; N-terminus and C-terminus assumed)", "values": [{"measurement": "4T1 tumor growth", "setting": "[1]; 250 μg tail vein every other day, day 0 to 22, vs cRAA", "result": "suppressed subcutaneous 4T1 breast cancer growth"}, {"measurement": "apoptosis of cancer cells and cancer ECs in 4T1 breast carcinoma", "setting": "[1]; CD31/TUNEL double staining", "result": "induces apoptosis of both cancer cells and cancer ECs"}, {"measurement": "tumor angiogenesis, proliferation and apoptosis in 4T1 tumor", "setting": "[1]; [6]", "result": "suppressed tumor angiogenesis, proliferation and induced apoptosis"}, {"measurement": "vascularization of 4T1 tumors", "setting": "[1]; compared to control", "result": "reduced vascularization"}, {"measurement": "suppression of breast cancer growth", "setting": "[1]; intravenous injection", "result": 75, "unit": "%"}, {"measurement": "tumor angiogenesis, proliferation and apoptosis in pre-established B16 tumor", "setting": "[2]; [6]", "result": "suppressed tumor angiogenesis, proliferation and induced apoptosis"}, {"measurement": "vascularization of pre-established B16 tumors", "setting": "[2]; compared to control", "result": "reduced vascularization"}, {"measurement": "pre-established B16 tumor growth", "setting": "[2]; six doses of 250 μg tail vein on days 8-13", "result": "inhibits pre-established subcutaneous B16 melanoma growth"}, {"measurement": "EC attachment and adhesion", "setting": "[3]", "result": "mediated EC attachment and adhesion"}, {"measurement": "Kd", "setting": "[4]", "result": 9.6, "unit": "nM"}, {"measurement": "induction of EC apoptosis (pro-apoptotic activity)", "setting": "[5]", "result": "potently induced apoptosis"}, {"measurement": "induction of EC apoptosis (pro-apoptotic activity)", "setting": "[5]; listed as RKD", "result": "equally potent comparing to “RKLYD”"}]}
